Source: patent publication US10676504B2 (Colorado State University Research Foundation, priority 2015, dated 2020)
Where two headings read alike, the source gives them in different places.

Assays:
[1] = biological target: T1, HDAC6 (Homo sapiens, UniProt Q9UBN7); details: read-out: HDAC6 IC50; Table O1; 200 μM TCEP
T1 sequence (Q9UBN7 1-1215): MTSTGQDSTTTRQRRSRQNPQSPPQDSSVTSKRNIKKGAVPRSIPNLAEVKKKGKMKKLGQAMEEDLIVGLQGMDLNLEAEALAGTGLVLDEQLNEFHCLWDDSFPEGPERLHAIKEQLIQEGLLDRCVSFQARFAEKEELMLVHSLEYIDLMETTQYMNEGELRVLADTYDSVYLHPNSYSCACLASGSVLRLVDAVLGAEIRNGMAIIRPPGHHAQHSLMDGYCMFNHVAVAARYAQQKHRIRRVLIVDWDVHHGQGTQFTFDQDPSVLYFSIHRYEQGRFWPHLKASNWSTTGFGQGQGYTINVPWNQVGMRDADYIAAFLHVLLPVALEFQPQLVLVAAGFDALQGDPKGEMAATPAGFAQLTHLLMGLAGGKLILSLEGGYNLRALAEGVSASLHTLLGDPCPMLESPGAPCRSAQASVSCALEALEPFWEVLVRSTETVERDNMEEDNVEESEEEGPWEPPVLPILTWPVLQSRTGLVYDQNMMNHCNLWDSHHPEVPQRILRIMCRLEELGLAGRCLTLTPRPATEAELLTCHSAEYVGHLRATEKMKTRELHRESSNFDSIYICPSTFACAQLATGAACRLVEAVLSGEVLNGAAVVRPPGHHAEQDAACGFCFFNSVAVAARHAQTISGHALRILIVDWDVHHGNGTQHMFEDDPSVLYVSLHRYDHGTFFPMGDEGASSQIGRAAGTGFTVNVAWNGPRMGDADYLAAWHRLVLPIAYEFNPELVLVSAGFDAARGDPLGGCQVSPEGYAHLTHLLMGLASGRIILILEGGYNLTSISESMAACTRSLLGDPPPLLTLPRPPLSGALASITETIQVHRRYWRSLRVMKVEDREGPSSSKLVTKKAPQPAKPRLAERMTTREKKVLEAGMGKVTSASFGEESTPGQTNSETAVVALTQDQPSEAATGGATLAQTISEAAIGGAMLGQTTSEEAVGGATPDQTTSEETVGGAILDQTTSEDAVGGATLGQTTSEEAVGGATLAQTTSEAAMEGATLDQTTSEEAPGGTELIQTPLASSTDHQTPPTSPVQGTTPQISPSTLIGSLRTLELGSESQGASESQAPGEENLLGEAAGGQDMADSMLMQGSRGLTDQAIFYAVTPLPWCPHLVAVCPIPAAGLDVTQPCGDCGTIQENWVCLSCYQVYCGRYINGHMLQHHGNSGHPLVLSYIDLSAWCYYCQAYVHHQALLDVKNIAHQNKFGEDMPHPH

[2] = biological target: T2, HDAC1 (Homo sapiens, UniProt Q13547); details: read-out: HDAC1 IC50; Table O1
[3] = biological target: T3, HDAC3 (Homo sapiens, UniProt O15379); test: HDAC biochemical assay of O10-O12 (Table O1)
T3 construct: The recombinant, full-length HDAC protein (BPS Biosciences) was incubated; purchased BPS Biosciences

[4] = biological target: T4, HDAC2 (Homo sapiens, UniProt Q92769); test: HDAC biochemical assay of O10-O12 (Table O1); design: The recombinant, full-length HDAC protein (BPS Biosciences) was incubated; purchased BPS Biosciences
[5] = biological target: T5, HDAC3/NCor2 (Homo sapiens, UniProt O15379); test: HDAC biochemical assay (Example 16)
T5 construct: recombinant, full-length HDAC protein; purchased BPS Biosciences
Experimental: (§1) Thus, small-molecule inhibitors were arrayed at twelve-point dose-response (3-fold increments) in 384-well library plates and transferred by robotic pin device to replicate assay plates containing assay buffer under reducing conditions (TCEP 200 μM). A liquid handling device then transferred a tripeptide substrate terminating in acetyl-lysine and amide conjugated to 4-methyl-7-aminocoumarin (AMC), recombinant human histone deacetylase (BPS Bioscience, San Diego, Calif.), and recombinant human trypsin (Sigma-Aldrich, St. Louis, Mo.). Following deacetylase hydrolysis of acetyl-lysine, trypsin cleavage liberated the AMC fluorophore. Kinetic (fluorescence per unit time) and end-point (total fluorescence) data were captured by a multilabel plate reader. Replicate data were analyzed by curve-fit using logistic regression (Spotfire Decision-Site).

[6] = biological target: T4, HDAC2; test: HDAC biochemical assay (Example 16); design: recombinant, full-length HDAC protein; purchased BPS Biosciences; details: Table 4; reducing conditions (TCEP 200 μM)
Experimental: as §1

[7] = biological target: T2, HDAC1; test: HDAC biochemical assay (Example 16); design: recombinant, full-length HDAC protein; purchased BPS Biosciences; details: Table 4; reducing conditions (TCEP 200 μM)
Experimental: as §1

[8] = biological target: T1, HDAC6; test: HDAC biochemical assay (Example 16); design: recombinant, full-length HDAC protein; purchased BPS Biosciences; details: Table 4; reducing conditions (TCEP 200 μM)
Experimental: as §1

[9] = biological target: T4, HDAC2; test: HDAC2 inhibition, trypsin-coupled kinetic fluorescence homogeneous assay (Example 10); assay type: biochemical; design: The recombinant, full-length HDAC protein (BPS Biosciences) was incubated; purchased BPS Biosciences; details: Conc (uM); logistic curve fit of activity versus concentration; some fits reached max iterations; read-out: X50
Experimental: To measure the inhibitory effect on deacetylase function in vitro, a continuous kinetic biochemical assay miniaturized to 384-well plate format was optimized.
Fluorescence measurements were obtained in real-time on a Varioskan microtiter plate reader (Thermo).
A biochemical study of HDAC2 inhibition was carried out using the trypsin-coupled, kinetic fluorescence homogeneous assay described above.

[10] = system: human HDACs; test: HDAC biochemical assay (Example 16), summary statements over isoforms
Experimental: The inhibitory effect of compounds on deacetylase isoenzyme function was determined in vitro using an optimized homogenous assay performed in 384-well plate format. […] Data are analyzed on a plate-by-plate basis for the linear range of fluorescence over time. Data from the plate capture corresponding to the mid-linear range is imported into analytical software and annotated with well identity and compound concentration (Spotfire DecisionSite). Replicate experimental data from incubations with inhibitor are normalized to control, solvent-only wells and IC-50 is determined by logistic regression.
Thus, small-molecule inhibitors were arrayed at twelve-point dose-response (3-fold increments) in 384-well library plates and transferred by robotic pin device to replicate assay plates containing assay buffer under reducing conditions (TCEP 200 μM). A liquid handling device then transferred a tripeptide substrate terminating in acetyl-lysine and amide conjugated to 4-methyl-7-aminocoumarin (AMC), recombinant human histone deacetylase (BPS Bioscience, San Diego, Calif.), and recombinant human trypsin (Sigma-Aldrich, St. Louis, Mo.). […] Kinetic (fluorescence per unit time) and end-point (total fluorescence) data were captured by a multilabel plate reader. Replicate data were analyzed by curve-fit using logistic regression (Spotfire Decision-Site). […]

T5 sequence (O15379 whole entry): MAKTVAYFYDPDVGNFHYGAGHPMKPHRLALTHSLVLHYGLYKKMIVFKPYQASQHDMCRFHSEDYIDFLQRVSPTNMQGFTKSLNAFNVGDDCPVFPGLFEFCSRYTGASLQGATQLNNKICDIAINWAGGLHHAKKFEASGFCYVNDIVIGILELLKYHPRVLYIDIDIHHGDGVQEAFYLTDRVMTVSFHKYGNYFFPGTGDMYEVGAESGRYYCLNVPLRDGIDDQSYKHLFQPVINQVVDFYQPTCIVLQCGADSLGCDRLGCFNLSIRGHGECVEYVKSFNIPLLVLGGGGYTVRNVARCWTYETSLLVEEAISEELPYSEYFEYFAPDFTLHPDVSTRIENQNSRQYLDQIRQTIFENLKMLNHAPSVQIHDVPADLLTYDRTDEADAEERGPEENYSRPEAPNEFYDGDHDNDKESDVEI
T5 sequence (Q9Y618 395-489 partner limits assumed): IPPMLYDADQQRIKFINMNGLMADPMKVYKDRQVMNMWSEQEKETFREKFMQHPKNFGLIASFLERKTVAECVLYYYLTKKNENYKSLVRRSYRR
T2 sequence (Q13547 whole entry): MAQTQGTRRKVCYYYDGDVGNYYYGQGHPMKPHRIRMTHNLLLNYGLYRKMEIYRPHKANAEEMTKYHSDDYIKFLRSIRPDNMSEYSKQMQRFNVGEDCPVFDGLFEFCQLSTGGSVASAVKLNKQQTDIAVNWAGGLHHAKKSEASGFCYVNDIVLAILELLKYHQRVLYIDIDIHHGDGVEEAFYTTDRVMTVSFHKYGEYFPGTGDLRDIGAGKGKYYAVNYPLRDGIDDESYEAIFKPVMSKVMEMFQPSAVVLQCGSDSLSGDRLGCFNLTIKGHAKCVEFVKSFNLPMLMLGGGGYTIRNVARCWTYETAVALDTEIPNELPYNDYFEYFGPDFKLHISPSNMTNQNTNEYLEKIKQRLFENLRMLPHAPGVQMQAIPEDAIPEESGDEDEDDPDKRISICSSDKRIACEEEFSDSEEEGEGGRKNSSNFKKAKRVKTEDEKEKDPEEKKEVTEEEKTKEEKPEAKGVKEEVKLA
T4 sequence (Q92769 whole entry): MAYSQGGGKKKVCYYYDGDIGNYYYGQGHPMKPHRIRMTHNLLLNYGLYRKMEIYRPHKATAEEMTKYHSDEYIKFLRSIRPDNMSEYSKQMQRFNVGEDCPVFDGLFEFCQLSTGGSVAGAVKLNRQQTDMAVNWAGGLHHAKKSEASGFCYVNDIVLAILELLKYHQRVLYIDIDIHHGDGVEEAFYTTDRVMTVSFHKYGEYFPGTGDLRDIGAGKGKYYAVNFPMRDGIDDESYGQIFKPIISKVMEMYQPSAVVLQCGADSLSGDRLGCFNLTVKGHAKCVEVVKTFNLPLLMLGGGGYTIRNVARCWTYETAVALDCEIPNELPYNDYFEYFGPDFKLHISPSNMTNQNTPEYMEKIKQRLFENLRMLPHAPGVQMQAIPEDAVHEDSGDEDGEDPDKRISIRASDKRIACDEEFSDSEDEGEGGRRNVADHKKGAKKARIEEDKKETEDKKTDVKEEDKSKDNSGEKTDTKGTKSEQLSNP
T3 sequence (O15379 whole entry): as the sequence (O15379 whole entry) above
T3 sequence (Q9Y618 395-489 partner limits assumed): as the sequence (Q9Y618 395-489 partner limits assumed) above

SMILES | IC50 [5] [nM] | IC50 [6] [nM] | IC50 [7] [nM] | IC50 [8] [nM] | also measured
CCCCCCCC(=O)SCCC=CC1CC(=O)NCc2nc(co2)C2=NC(C)(CS2)C(=O)NC(C(C)C)C(=O)O1 (stereo not drawn) [Compound O12, Thiazoline-Oxazole Thioester Analog] | – | – | – | – | IC50 [1]: 1100 nM; IC50 [2]: 950 nM; IC50 [3]: 1900 nM; IC50 [4]: 2100 nM
CC(C)C1NC(=O)C2(C)COC(=N2)c2coc(n2)CNC(=O)CC(C=CCCSSCCC=CC2CC(=O)NCc3nc(co3)C3=NC(C)(CO3)C(=O)NC(C(C)C)C(=O)O2)OC1=O (stereo not drawn) [Oxazoline-oxazole (39b), Disulfide Dimer 39b] | 1.5 | 1.7 | 0.69 | – | –
C[C@@]12CSC(=N1)c1csc(n1)CNC(=O)C[C@@H](/C=C/CCS)OC(=O)[C@@H]1CCCN1C2=O [Proline substitution (4)] | – | 800 | 110 | 13000 | IC50 ([5]; Table 4, reducing conditions (TCEP 200 μM)): 580 nM; IC50 [9]: 0.773 µM
CC(C)[C@@H]1NC(=O)[C@]2(C)CSC(=N2)c2cccc(n2)CNC(=O)C[C@@H](/C=C/CCS)OC1=O [Thiazole-pyridine substitution (29b)] | 1.1 | – | – | 29 | activity against Class I HDACs [10]: sub-nanomolar
